The values that follow come from patent US10864163B2, “Therapeutic agents and delivery with microspheres” (UCL Business PLC, priority 2013, dated 2020).

“Also recorded” adds a separate entry of the source.

Data set [1] in a line: Release of API from doxorubicin-loaded wetted TIPS microspheres (FIG. 11d). It is filed as physicochemical. The following applies: doxorubicin attached to pre-wetted TIPS microspheres.
Data set [2] is described as follows: Attachment of API (doxorubicin) to wetted and non-wetted TIPS microspheres. It is filed as physicochemical. The conditions noted are these: doxorubicin 0.5 mg/ml in water, overnight at room temperature, 150 rpm, centrifuged at 13000 rpm for 20 seconds. How it is done:
100 mg of TIPS microspheres was added to a 7 ml plastic container. The microspheres were wetted with 70% ethanol for 1 minute. The alcohol was removed and the microspheres washed with 5 ml deionised water. 1 ml of doxorubicin (0.5 mg/ml in water) was added to the container. The microspheres and doxorubicin solution were mixed by pipetting and incubated overnight at room temperature with agitation at 150 rpm on an orbital shaker. Control non-wetted microspheres were treated in the same manner. The microspheres were centrifuged at 13000 rpm for 20 seconds.

Take `COc1cccc2c1C(=O)c1c(O)c3c(c(O)c1C2=O)C[C@@](O)(C(=O)CO)C[C@@H]3O[C@H]1C[C@H](N)[C@H](O)[C@H](C)O1` [doxorubicin]: the “release of the API from wetted TIPS microspheres” value in data set [1] is reported as “controlled release of the API is observed over a prolonged period”. Also, the “binding of doxorubicin to the surface of non-wetted, hydrophobic microspheres” value in data set [2] (control non-wetted microspheres) is given as “separated from the non-wetted samples; also recorded: does not bind to the surface of non-wetted, hydrophobic microspheres”. In addition, the “binding of doxorubicin to the surface of wetted TIPS microspheres” value in data set [2] (microspheres pre-wetted with 70% ethanol) is “remained bound to the surface of the wetted microspheres; also recorded: binds well to the surface of pre-wetted TIPS microspheres”.
